Assay results: PubChem BioAssay (NCI)
Several values for one entry are separate records, joined by “and”; a condition that tells them apart may be missing. Equal values may be shown once.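 Grown in 96-well plates, cells were treated for 48 hours with each compound at five concentrations. Insufficient inhibition: endpoint recorded as highest concentration tested. GI50 = concentration required for 50% inhibition of growth. TGI: concentration producing complete growth inhibition.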

Legend:
Assay in all cases: NCI-60 cell line screen, 48 h
[1] = tested on: COLO 205 colon
[2] = tested on: ACHN renal
[3] = tested on: UACC-257 melanoma
[4] = tested on: HS 578T breast
[5] = tested on: MDA-MB-231 breast
[6] = tested on: SN12C renal
[7] = tested on: OVCAR-3 ovarian
[8] = tested on: SR leukemia
[9] = tested on: HOP-62 NSCLC
[10] = tested on: PC-3 prostate

Row | SMILES | GI50 [1] | TGI [1] | GI50 [2] | TGI [2] | GI50 [3] | TGI [3] | GI50 [4] | TGI [4] | GI50 [5] | TGI [5] | GI50 [6] | TGI [6] | GI50 [7] | TGI [7] | GI50 [8] | TGI [8] | GI50 [9] | TGI [9] | GI50 [10] | TGI [10]
1 | C=CCCC(=O)N1C=CC(=O)[C@H](O)[C@@H]1/C=C/c1ccccc1 | 10.9 µM | > 32.5 µM | 5.27 µM | > 32.5 µM | 18 µM | > 32.5 µM | > 32.5 µM | > 32.5 µM | 18.6 µM | > 32.5 µM | 12.7 µM | > 32.5 µM | 6.13 µM | > 32.5 µM | 4.28 µM | > 32.5 µM | 13.3 µM | > 32.5 µM | – | –
2 | Nc1c(-c2nc3ccccc3[nH]2)sc(=S)n1-c1ccc(Cl)cc1 | – | > 100 µM | – | 43 µM | – | 65.6 µM | – | – | – | – | – | 50.1 µM | – | 36.4 µM | – | – | – | 47.3 µM | – | –
3 | NS(=O)(=O)c1ccc(NC(=O)COC(=O)c2cccc3c(=O)c4ccccc4[nH]c23)cc1 | – | > 100 µM | – | 71.9 µM | – | > 100 µM | – | – | – | – | – | 90 µM | – | 47.6 µM | – | 19.7 µM | – | 40.2 µM | – | –
4 | CC(=O)O[C@H]1C=CC23OC(=O)[C@]1(C)[C@H]2[C@H](C(=O)O)C12CC(=O)[C@@](CO)(CC[C@H]13)C2 | – | > 100 µM | – | > 100 µM | – | > 100 µM | – | – | – | – | – | > 100 µM | – | > 100 µM | – | > 100 µM | – | > 100 µM | – | –
5 | CC(C)(C)OC(=O)N1N=NC2C3OC(CC3=O)C21 (stereo not given) | – | > 100 µM | – | > 100 µM | – | > 100 µM | – | – | – | – | – | > 100 µM | – | > 100 µM | – | > 100 µM | – | > 100 µM | – | –
6 | NC(=O)N/N=C(/c1nc2ccc([N+](=O)[O-])cc2[nH]c1=O)C(O)c1ccco1 (stereo not given) | – | > 100 µM | – | > 100 µM | – | > 100 µM | – | – | – | – | – | 33.5 µM | – | > 100 µM | – | > 100 µM | – | 94.6 µM | – | –
7 | c1ccc2nc(OCCN3CC3)ccc2c1 | 1.98 µM | 5 µM | 15 µM | 35.9 µM | 16.5 µM | 32.8 µM | 20.3 µM | 62.2 µM | 7.95 µM | 26.3 µM | 11.8 µM | 29.5 µM | 6.29 µM | 22.1 µM | – | – | 15.2 µM | 34.1 µM | 10.4 µM | 25.2 µM
8 | CC(=O)n1ccc2c(Cl)ncnc21 | – | > 100 µM | – | > 100 µM | – | > 100 µM | – | – | – | – | – | > 100 µM | – | > 100 µM | – | > 100 µM | – | > 100 µM | – | –
9 | CC(C)N(C(C)C)P(OCCC#N)OC1CC(n2cnc3c(=O)[nH]cnc32)OC1COC(=O)NCCCCCCNC(=O)OC(C)(C)c1ccc(-c2ccccc2)cc1 (stereo not given) | – | 31.2 µM | – | > 100 µM | – | 30.3 µM | – | – | – | – | – | 54 µM | – | – | – | – | – | 44.2 µM | – | –
10 | O=C1NC2(C=Cc3c(ccc4ccccc34)O2)Oc2ccccc21 (stereo not given) | – | 42.5 µM | – | 77.7 µM | – | – | – | – | – | – | – | 63.4 µM | – | 59.8 µM | – | 34.5 µM | – | > 100 µM | – | –
11 | Cc1ccc(NC(=O)CCC(=O)C(C#N)c2ccccc2)cc1C (stereo not given) | – | > 100 µM | – | > 100 µM | – | > 100 µM | – | – | – | – | – | > 100 µM | – | > 100 µM | – | – | – | – | – | –
12 | CCOC(=O)NC(=O)c1c[nH]c(=O)[nH]c1=O | – | > 100 µM | – | > 100 µM | – | > 100 µM | – | – | – | – | – | > 100 µM | – | > 100 µM | – | > 100 µM | – | > 100 µM | – | –
13 | C[n+]1c(N)n(C(=O)OCc2ccccc2)c(=O)c2c1ncn2C(=O)OCc1ccccc1 | – | > 100 µM | – | > 100 µM | – | > 100 µM | – | – | – | – | – | > 100 µM | – | > 100 µM | – | – | – | > 100 µM | – | –
14 | C#Cc1cc2c(N)c(C(=O)c3cc(OC)c(OC)c(OC)c3)[nH]c2cc1OC | 0.38 µM | 2.27 µM | 0.574 µM | > 100 µM | 0.532 µM | > 100 µM | 1.34 µM | > 100 µM | 5.13 µM | > 100 µM | 11.2 µM | > 100 µM | – | – | 0.381 µM | > 100 µM | 0.58 µM | > 100 µM | 0.45 µM | > 100 µM
15 | COC(=O)C(Cc1nc2ccccc2[nH]c1=O)C(=O)C(=O)Nc1cc(C(F)(F)F)ccc1Cl (stereo not given) | – | – | – | 24.5 µM | – | > 100 µM | – | 43.2 µM | – | 52.5 µM | – | 54.8 µM | – | 25.4 µM | – | > 100 µM | – | 35.1 µM | – | 34.4 µM
16 | COC(=O)C1C2CC3C(OC(=O)C31)C2OC(=O)[C@](OC)(c1ccccc1)C(F)(F)F (stereo not given in full) | – | > 100 µM | – | > 100 µM | – | > 100 µM | – | – | – | – | – | > 100 µM | – | > 100 µM | – | > 100 µM | – | > 100 µM | – | –
17 | CO[C@H](C(=O)O)[C@@H]1Cc2cc3cc(OC4CC(OC5CC(O)C(O)C(C)O5)C(O)C(C)O4)c(C)c(O)c3c(O)c2C(=O)[C@H]1OC1CC(OC2CC(OC3CC(C)(O)C(O)C(C)O3)C(O)C(C)O2)C(O)C(C)O1 (stereo not given in full) | 0.285 µM | 2.57 µM | – | – | 0.38 µM | > 32.5 µM | 0.161 µM | > 32.5 µM | 0.553 µM | > 32.5 µM | 0.179 µM | > 32.5 µM | 0.28 µM | 2.04 µM | 0.133 µM | 8.37 µM | 0.211 µM | > 32.5 µM | 0.348 µM | > 32.5 µM
18 | N#Cc1cccc(OCc2ccccc2COc2cccc(C#N)c2)c1 | 33.8 µM | 98.3 µM | 27.2 µM | 86.3 µM | > 100 µM | > 100 µM | 30.9 µM | 70.5 µM | 7.83 µM | 47.5 µM | 19 µM | 73.1 µM | – | – | – | – | – | – | 25.5 µM | > 100 µM
19 | CCCCOc1ccc(/C=N/Nc2cc(C)nc3ccc(Cl)cc23)cc1 | 2.01 µM | 4.03 µM | 1.73 µM | 3.1 µM | 1.61 µM | 3.11 µM | – | – | 1.74 µM | 3.25 µM | 1.63 µM | 3.08 µM | 2.03 µM | 3.78 µM | 0.501 µM | 3.13 µM | 1.62 µM | 3.28 µM | 1.71 µM | 3.35 µM
20 | COC(=O)Cc1nc2ccccc2o1 | – | > 100 µM | – | > 100 µM | – | > 100 µM | – | – | – | – | – | > 100 µM | – | > 100 µM | – | > 100 µM | – | > 100 µM | – | –
21 | COc1cc(C2c3cc4c(cc3[C@@H](Nc3ccc(N)cc3)C3COC(=O)[C@H]23)OCO4)cc(OC)c1O (stereo not given in full) | 0.996 µM | 47.7 µM | 0.345 µM | 6.05 µM | – | 28 µM | – | – | – | 34.8 µM | 0.492 µM | 6.15 µM | – | 20 µM | 0.151 µM | 0.682 µM and 6.81 µM | – | 0.865 µM and 2.5 µM | – | 16.5 µM
